# According to PubChem BioAssay (NCI):
#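 Step 1: Grow cells in 96-well plates. Step 2: Expose to compound for 48 hours at 5 concentrations. Step 3: Interpolate endpoints linearly; if unreached, use highest concentration. TGI marks complete inhibition of growth.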
# Key:
# Test in all cases: NCI anticancer screen, dose series, 48 h
# 786-0 renal = test system: 786-0 renal
# A498 renal = test system: A498 renal
# A549 NSCLC = test system: A549 NSCLC
# ACHN renal = test system: ACHN renal
# CAKI-1 renal = test system: CAKI-1 renal
# CCRF-CEM leukemia = test system: CCRF-CEM leukemia
# DLD-1 colon = test system: DLD-1 colon
# DMS 114 small cell lung = test system: DMS 114 small cell lung
# DMS 273 small cell lung = test system: DMS 273 small cell lung
# EKVX NSCLC = test system: EKVX NSCLC
# HCT-116 colon = test system: HCT-116 colon
# HL-60(TB) leukemia = test system: HL-60(TB) leukemia
# HOP-62 NSCLC = test system: HOP-62 NSCLC
# HOP-92 NSCLC = test system: HOP-92 NSCLC
# HT29 colon = test system: HT29 colon
# IGROV1 ovarian = test system: IGROV1 ovarian
# K-562 leukemia = test system: K-562 leukemia
# KM12 colon = test system: KM12 colon
# KM20L2 colon = test system: KM20L2 colon
# M14 melanoma = test system: M14 melanoma
# M19-MEL melanoma = test system: M19-MEL melanoma
# MALME-3M melanoma = test system: MALME-3M melanoma
# MOLT-4 leukemia = test system: MOLT-4 leukemia
# NCI-H226 lung = test system: NCI-H226 lung
# NCI-H23 lung = test system: NCI-H23 lung
# NCI-H460 lung = test system: NCI-H460 lung
# NCI-H522 lung = test system: NCI-H522 lung
# OVCAR-3 ovarian = test system: OVCAR-3 ovarian
# OVCAR-4 ovarian = test system: OVCAR-4 ovarian
# OVCAR-5 ovarian = test system: OVCAR-5 ovarian
# OVCAR-8 ovarian = test system: OVCAR-8 ovarian
# RXF 393 renal = test system: RXF 393 renal
# SF-268 CNS = test system: SF-268 CNS
# SF-295 CNS = test system: SF-295 CNS
# SF-539 CNS = test system: SF-539 CNS
# SK-MEL-2 melanoma = test system: SK-MEL-2 melanoma
# SK-MEL-28 melanoma = test system: SK-MEL-28 melanoma
# SK-MEL-5 melanoma = test system: SK-MEL-5 melanoma
# SK-OV-3 ovarian = test system: SK-OV-3 ovarian
# SN12C renal = test system: SN12C renal
# SNB-19 CNS = test system: SNB-19 CNS
# SNB-75 CNS = test system: SNB-75 CNS
# SNB-78 CNS = test system: SNB-78 CNS
# SR leukemia = test system: SR leukemia
# SW-620 colon = test system: SW-620 colon
# TK-10 renal = test system: TK-10 renal
# U251 CNS = test system: U251 CNS
# UACC-257 melanoma = test system: UACC-257 melanoma
# UACC-62 melanoma = test system: UACC-62 melanoma
# UO-31 renal = test system: UO-31 renal
# XF 498 CNS = test system: XF 498 CNS
# COLO 205 colon = test system: COLO 205 colon
# HCC-2998 colon = test system: HCC-2998 colon
# HCT-15 colon = test system: HCT-15 colon
# HOP-18 NSCLC = test system: HOP-18 NSCLC
# LOX IMVI melanoma = test system: LOX IMVI melanoma
# LXFL 529 NSCLC = test system: LXFL 529 NSCLC
# RPMI-8226 leukemia = test system: RPMI-8226 leukemia
smiles,measurement,setting,value
CC(=O)CNC(=O)OC(C)(C)C,TGI,786-0 renal,> 100 µM
same,TGI,A498 renal,> 100 µM
same,TGI,A549 NSCLC,> 100 µM
same,TGI,ACHN renal,> 100 µM
same,TGI,CAKI-1 renal,> 100 µM
same,TGI,CCRF-CEM leukemia,> 100 µM
same,TGI,DLD-1 colon,> 100 µM
same,TGI,DMS 114 small cell lung,> 100 µM
same,TGI,DMS 273 small cell lung,> 100 µM
same,TGI,EKVX NSCLC,> 100 µM
same,TGI,HCT-116 colon,> 100 µM
same,TGI,HL-60(TB) leukemia,> 100 µM
same,TGI,HOP-62 NSCLC,> 100 µM
same,TGI,HOP-92 NSCLC,> 100 µM
same,TGI,HT29 colon,> 100 µM
same,TGI,IGROV1 ovarian,> 100 µM
same,TGI,K-562 leukemia,> 100 µM
same,TGI,KM12 colon,> 100 µM
same,TGI,KM20L2 colon,> 100 µM
same,TGI,M14 melanoma,> 100 µM
same,TGI,M19-MEL melanoma,> 100 µM
same,TGI,MALME-3M melanoma,> 100 µM
same,TGI,MOLT-4 leukemia,> 100 µM
same,TGI,NCI-H226 lung,> 100 µM
same,TGI,NCI-H23 lung,> 100 µM
same,TGI,NCI-H460 lung,> 100 µM
same,TGI,NCI-H522 lung,> 100 µM
same,TGI,OVCAR-3 ovarian,> 100 µM
same,TGI,OVCAR-4 ovarian,> 100 µM
same,TGI,OVCAR-5 ovarian,> 100 µM
same,TGI,OVCAR-8 ovarian,> 100 µM
same,TGI,RXF 393 renal,> 100 µM
same,TGI,SF-268 CNS,> 100 µM
same,TGI,SF-295 CNS,> 100 µM
same,TGI,SF-539 CNS,> 100 µM
same,TGI,SK-MEL-2 melanoma,> 100 µM
same,TGI,SK-MEL-28 melanoma,> 100 µM
same,TGI,SK-MEL-5 melanoma,> 100 µM
same,TGI,SK-OV-3 ovarian,> 100 µM
same,TGI,SN12C renal,> 100 µM
same,TGI,SNB-19 CNS,> 100 µM
same,TGI,SNB-75 CNS,> 100 µM
same,TGI,SNB-78 CNS,> 100 µM
same,TGI,SR leukemia,> 100 µM
same,TGI,SW-620 colon,> 100 µM
same,TGI,TK-10 renal,> 100 µM
same,TGI,U251 CNS,> 100 µM
same,TGI,UACC-257 melanoma,> 100 µM
same,TGI,UACC-62 melanoma,> 100 µM
same,TGI,UO-31 renal,> 100 µM
same,TGI,XF 498 CNS,> 100 µM
NC(=O)C(=O)N/N=C(\CC1(O)C(=O)Nc2ccccc21)c1ccc2ccccc2c1 (stereo not drawn),TGI,786-0 renal,> 100 µM
same,TGI,A498 renal,82.1 µM
same,TGI,A549 NSCLC,43.9 µM
same,TGI,ACHN renal,> 100 µM
same,TGI,CAKI-1 renal,> 100 µM
same,TGI,CCRF-CEM leukemia,48.5 µM
same,TGI,COLO 205 colon,41.1 µM
same,TGI,DLD-1 colon,> 100 µM
same,TGI,DMS 114 small cell lung,55.4 µM
same,TGI,DMS 273 small cell lung,80.5 µM
same,TGI,EKVX NSCLC,> 100 µM
same,TGI,HCC-2998 colon,87.9 µM
same,TGI,HCT-116 colon,21.2 µM
same,TGI,HCT-15 colon,> 100 µM
same,TGI,HL-60(TB) leukemia,36.5 µM
same,TGI,HOP-18 NSCLC,> 100 µM
same,TGI,HOP-62 NSCLC,> 100 µM
same,TGI,HOP-92 NSCLC,87.8 µM
same,TGI,HT29 colon,> 100 µM
same,TGI,IGROV1 ovarian,> 100 µM
same,TGI,K-562 leukemia,61.7 µM
same,TGI,KM12 colon,58.7 µM
same,TGI,LOX IMVI melanoma,85.5 µM
same,TGI,LXFL 529 NSCLC,> 100 µM
same,TGI,M14 melanoma,> 100 µM
same,TGI,M19-MEL melanoma,65.6 µM
same,TGI,MALME-3M melanoma,> 100 µM
same,TGI,MOLT-4 leukemia,53.5 µM
same,TGI,NCI-H226 lung,> 100 µM
same,TGI,NCI-H23 lung,76.7 µM
same,TGI,NCI-H460 lung,> 100 µM
same,TGI,NCI-H522 lung,41.6 µM
same,TGI,OVCAR-3 ovarian,67.3 µM
same,TGI,OVCAR-4 ovarian,> 100 µM
same,TGI,OVCAR-5 ovarian,> 100 µM
same,TGI,OVCAR-8 ovarian,> 100 µM
same,TGI,RPMI-8226 leukemia,86.3 µM
same,TGI,RXF 393 renal,41.2 µM
same,TGI,SF-268 CNS,> 100 µM
same,TGI,SF-295 CNS,> 100 µM
same,TGI,SF-539 CNS,> 100 µM
same,TGI,SK-MEL-2 melanoma,48.5 µM
same,TGI,SK-MEL-28 melanoma,> 100 µM
same,TGI,SK-MEL-5 melanoma,> 100 µM
same,TGI,SK-OV-3 ovarian,> 100 µM
same,TGI,SN12C renal,60.5 µM
same,TGI,SNB-19 CNS,> 100 µM
same,TGI,SNB-75 CNS,> 100 µM
same,TGI,SNB-78 CNS,> 100 µM
same,TGI,SR leukemia,44.5 µM
same,TGI,SW-620 colon,> 100 µM
same,TGI,TK-10 renal,> 100 µM
same,TGI,U251 CNS,76.4 µM
same,TGI,UACC-257 melanoma,> 100 µM
same,TGI,UACC-62 melanoma,77.9 µM
same,TGI,UO-31 renal,> 100 µM
same,TGI,XF 498 CNS,51.3 µM
